Laboratory results reported in patent publication US8815878B1, “Spiro hemiaminals for treating viral diseases” (NovaDrug, LLC, priority 2010, dated 2014).

Tested on: Huh7-1 cells
Experiment: HCV Induced Cytotoxicity Test (Promega CytoTox 96 LDH release)
Format: cell-based, human
Conditions: 5 day HCV-infected Huh7-1 cultures
Protocol: Initially, 6×10^3 Huh7-1 cells are incubated overnight in each well of collagen-coated BioCoat 96-well plates (BD Biosciences, Bedford, Mass.) in 0.2 ml 10% medium composed of Dulbecco's modified Eagle's medium supplemented with 10% fetal bovine serum. Subsequently, at 2 day intervals, the cultures are replenished with fresh 0.2 ml 10% medium. After the cultures become confluent, they continue to be replenished at 2 day intervals with fresh 0.2 ml 10% medium that also includes 1% dimethyl sulfoxide (DMSO). After 20 days of these replenishments, the Huh7-1 cultures are incubated with fresh 1% medium (same as 10% medium except that the serum level is 1%) containing HCV at a multiplicity of infection (MOI) of 0.05 focus forming units (ffu)/cell. The HCV (JFH-1 wt Huh7) stock titer is 1.5×10^5 ffu/ml. The next day (day 1 post-infection) and 2 days later (day 3 post-infection) the media are replenished with fresh 1% medium containing the test compounds dissolved in DMSO. On the 5th day of treatment with the compounds, cell lysates are collected for RNA isolation and Real Time-quantitative Reverse Transcription Polymerase Chain Reaction (RT-qPCR) and culture media are collected for cytotoxicity analysis.
HCV Induced Cytotoxicity Test. To determine whether the compounds described herein are cytotoxic at the tested doses used, the Promega CytoTox 96 Non-Radioactive Cytotoxicity Assay kit (Promega, Madison, Wis.) is used. This kit measures lactate dehydrogenase (LDH) levels in the culture medium, which is released from cells due to plasma membrane integrity loss or necrosis. For this test, 50 uL samples of culture medium are collected from the same 5 day cultures used to examine the RNA levels shown previously.

[1] = concentration ranges of 2.5 to 20 μM

SMILES	toxicity in the assay (LDH levels in the culture medium) (at 25 μM)	toxicity in the assay (LDH levels in the culture medium) [1]
O=C1N[C@]2(CC[C@@H]3CN(Cc4cc5c(cc4Cl)OCO5)C[C@@H]32)Nc2ccccc21 [Example 6]	limited toxicity	little to no toxicity
O=C1N[C@]2(CC[C@@H]3CN(Cc4cnc(N5CCOCC5)nc4)C[C@@H]32)Nc2ccccc21 [Example 4]		little to no toxicity
Cc1ccc2occ(CN3C[C@H]4CC[C@]5(NC(=O)c6ccccc6N5)[C@H]4C3)c(=O)c2c1 [Example 3]	limited toxicity	little to no toxicity
